Reference: US11213560B2, “Method of promoting wound healing with sinetirucallol” (NATIONAL DONG HWA UNIVERSITY, priority 2015, dated 2022)

Columns and labels:
p-ERK = assay: Western blot of phosphorylated ERK in LPS-induced RAW264.7 cells; format: cell-based, murine; details: LPS 1 μg/mL, 12 h; extract 5-100 μg/mL or SI 0.1-10 μM; dose-dependent manner
Protocol: (§1) The RAW264.7 murine macrophage cell line was purchased from the Bioresource Collection and Research Center (BCRC, Taiwan). The cells were incubated at 37° C. in 5% CO2 in Dulbecco's modified Eagle's medium (DMEM; Gibco Inc., NY, USA) supplemented with 100 U/mL penicillin, 100 μg/mL sodium pyruvate and 10% fetal bovine serum (FBS; Gibco Inc.).
(§2) The cells were also treated with 0.01% DMSO as a vehicle control. The cells were seeded into 12-well plates at a density of 6×10^5 cells/well in 24 h then incubated with 0.1% BSA with serum-free medium 3 h, treated with […]
(§3) The concentrations of proteins from whole-cell lysates were determined by Bradford assay. Equal amounts of protein were separated by SDS-PAGE and transferred onto nitrocellulose membranes. […] With the use of horseradish peroxidase-conjugated secondary anti-rabbit or anti-mouse antibody, bound antibodies were detected by enhanced chemiluminescence. The signals were monitored using Western Lightning™ Plus-ECL (Perkin Elmer Life Sciences) and the PVDF membrane was exposed to Luminescent image analyzer LAS-3000 (Fujifilm, Minato, Tokyo, Japan). Acquired data were analyzed and compared the difference among treatments.

[1] = system: LPS-induced RAW 264.7 cells; assay: Real-time PCR of inflammatory cytokine transcription in LPS-induced RAW 264.7 cells; format: cell-based, murine; details: LPS 1 μg/mL; 5 μM SI (tested 0.1, 1, 5, 10 μM)
Protocol: as §1
The cells were also treated with 0.01% DMSO as a vehicle control. The cells were seeded into 12-well plates at a density of 6×10^5 cells/well in 24 h then incubated with 0.1% BSA with serum-free medium 3 h, treated with different concentrations of Spiranthes sinensis extract or SI then incubated in the presence of LPS (1 μg/mL) for 4 h.
Total RNA was prepared from freshly harvested RAW 264.7 cells and was isolated using Trizol extraction. RNA samples were frozen at −80° C. until analyzed. cDNA was then made using an M-MLV RT kit (Invitrogen, Carlsbad, Calif.) according to the manufacturer's protocol. The expression of selected cytokine and related genes in mouse tissue and in RAW264.7 cells exposed to the present Spiranthes sinensis extract was determined by the SensiFAST SYBR No-ROX Kit (BIOLINE, London, UK), as described previously. PCR cycling conditions for TNF-Alpha included a 95° C. heating step for 2 min at the beginning of every run. […] In order to quantify expression represented by each of the PCR products, an internal reference by β-actin.

RAW 264.7 cells = assay: MTT cell viability of RAW264.7 cells (Example 2); format: cell-based, murine; details: extract 5, 20, 50, 100 μg/mL or sinetirucallol 0.1, 1, 5, 10 μM for 24 h
Protocol: as §1
In order to examine the bio-compatibility of the extract of the present disclosed composition, a MTT assay (3-(4,5-dimethylthiazol-2-yl)-2,5-diphenyltetrazolium bromide (MTT, Invitrogen), a colorimetric based assay) was performed.
Briefly, 8×10^3 of cells per well were seeded in 96-well plates and were incubated in 5% CO2 at 37° C. for overnight. Cells were treated different concentrations (5, 20, 50, and 100 μg/mL) of Spiranthes sinensis extract for 24 h, after incubation 20 μL (5 mg/mL) of MTT solution was added per well and further incubated for 4 h. The media was removed, and formazan was solubilized by adding 100 μl/well of DMSO (Sigma-Aldrich) and OD was measured at 570 nm using a microplate reader (ELISA reader, Thermo Labsystems). Percentage of viable cells was estimated by comparing with untreated control cells. The average absorbance value of the control cells was taken as 100% viability.

[2] = system: CFA-induced inflammation mice; assay: CFA-induced paw inflammation in mice, swelling index; format: in vivo, C57BL/6 mice
[3] = system: LPS-induced RAW264.7 cells; assay: Nitrite quantification of NO production in LPS-induced RAW264.7 cells; format: cell-based, murine; details: LPS 1 μg/mL 12 h; extract 5, 20, 50, 100 μg/mL or SI 0.1, 1, 5, 10 μM; dose-dependent manner
Protocol: as §1, §2
NO production from activated RAW 264.7 cells was determined by measuring the amount of nitrite, a stable oxidation product of NO. An aliquot of the conditioned medium was mixed with an equal volume of 1% sulfanilamide in water and 0.1% N-1-naphthylethylenediamine dihydrochloride in 5% phosphoric acid. The absorbance was determined at 550 nm. Sodium nitrite, diluted in culture media at concentrations of 10-100 μM, was used to generate a standard curve.

COX-2 = assay: Western blot of COX-2 in LPS-induced RAW264.7 cells; format: cell-based, murine; details: LPS 1 μg/mL, 12 h; extract 5-100 μg/mL or SI 0.1-10 μM; dose-dependent manner
Protocol: as §1, §2, §3

NFκB = assay: Western blot of NFκB in LPS-induced RAW264.7 cells; format: cell-based, murine; details: LPS 1 μg/mL, 12 h; extract 5-100 μg/mL or SI 0.1-10 μM; dose-dependent manner
Protocol: as §1, §2, §3

C[C@H](CC[C@@H]1CC1(C)C)[C@H]1CC[C@@]2(C)C3CCC4C(C)(C)[C@H](O)CC[C@@]4(C)C3=CC[C@]12C (stereo partly drawn) [sinetirucallol]
LPS-induced phosphorylation of ERK (p-ERK): diminished | inhibition of inflammatory cytokine transcription [1]: better inhibition | Cell viability (MTT assay) (RAW 264.7 cells): not affected | anti-inflammatory effect, low versus high dose ([2]; 0.44 μg/kg SI compared with 4.4 μg/kg SI): better effect than that of 4.4 μg/kg SI | foot swelling recovery compared with 0.3 mg/kg triamcinolone ([2]; SI group (4.4, 2.2, 0.44 μg/kg i.p.)): less foot swelling recovery than that of 0.3 mg/kg triamcinolone | anti-inflammatory effect (swelling index of foot) ([2]; intraperitoneal injection 3 times Day 0 to Day 2, extract 0.5, 0.3, 0.06 mg/kg b.w, SI 4.4, 2.2, 0.44 μg/kg, compared with CFA group): much better than that of Spiranthes sinensis extract | NO production (nitrite) [3]: inhibitory effect | LPS-induced expression of COX-2 (COX-2): diminished | LPS-induced expression of NFκB (NFκB): diminished
